Source: US20220071932A1, “Compositions and Methods Against Stress-Induced Affective Disorders and Their Associated Symptoms” (The Trustees of Columbia University in the City of New York, priority 2019, published 2022)

Columns and labels:
[1] = test system: 129S6/SvEv mice; assay: Contextual fear conditioning (CFC), 3-shock; freezing; assay type: in vivo; conditions: for p, Freezing (%), CFC Re-exposure 2, Saline vs. drug: drug 5 min after re-exposure 1; for Behavior: Fear: dose 30 mg/kg
Experimental: A 3-shock CFC paradigm was administered as previously described (45, 46). CFC was conducted in chambers obtained from Med Associates (St. Albans, Vt.), with internal dimensions of approximately 20 cm wide×16 cm deep×20.5 cm high. The chambers had metal walls on each side, clear plastic front and back walls and ceilings, and stainless-steel bars on the floor. A house light (CM1820 bulb, 28v, 100 mA) mounted directly above the chamber provided illumination. Each chamber was located inside a larger, insulated, plastic cabinet that provided protection from outside light and noise. Each cabinet contained a ventilation fan that was operated during the sessions. A paper towel dabbed with lemon solution was placed underneath the chamber floor. Mice were held outside the experimental room in their home cages prior to testing and transported to the conditioning apparatus individually in standard mouse cages Chambers were cleaned with 70% EtOH between each set of mice. Mice were placed into the conditioning chamber and received shocks at 180 s, 240 s, and 300 s (2 s duration, 0.75 mA). Fifteen seconds after the last shock, mice were removed from the chamber. Overall, the training session lasted 317 s. […] All sessions were scored for freezing using FreezeFrame4.

[2] = test system: NR2A subunit of the NMDAR; assay: Western blotting of hippocampus after fear memory recall; assay type: in vivo, mice; conditions: one week prior to CFC, (R,S)-ketamine 30 mg/kg, FENM 20 mg/kg, vs saline
Experimental: Samples from mouse hippocampus and prefrontal cortex were dissected, snap frozen, and stored at −80° C. Brain tissue was homogenized in RIPA buffer with protease inhibitor (Thermo Fisher Scientific, Waltham, Mass.; Roche, Basel, Switzerland) using a motorized pestle mixer (Argos Technologies, Vernon Hills, Ill.) and spun at 1000 g×14 minutes to remove cell debris. Protein concentration was determined using a Bradford protein assay (Bio-Rad, Hercules, Calif.). 4× Laemmli buffer and β-mercaptoethanol (Bio-Rad, Hercules, Calif.) was added to the samples, which were then boiled at 90° C. for five minutes. 50 μg of each sample was separated by SDS/PAGE, and proteins were transferred onto PVDF membrane (GE Healthcare Life Sciences, Marlborough, Mass.). Membranes were then blocked in 1×TBS with 0.1% Tween-20 and 5% BSA for 1 hr at RT. Incubation with primary antibodies was performed at 4° C. overnight (rabbit anti-β-tubulin, 1:10000, Abc am, Cambridge, UK, ab6046; rabbit anti-NR2A, 1:1000, Alomone Labs, Jerusalem, Israel, AGC-002; rabbit anti-NR2B, 1:600, Alomone Labs, Jerusalem, Israel, AGC-003; mouse anti-GluR1, 1:1000, Millipore Sigma, Burlington, Mass., MAB2263) in 1×TBS with 0.1% Tween-20 and 5% BSA. […]

[3] = test system: NMDARs; conditions: ex vivo autoradiography and immunohistochemical staining; cited from earlier work
[4] = 30 mg/kg, drug 1 week before stress, FIG. 1C
[5] = 30 mg/kg, drug 5 minutes after stress, FIG. 2C
[6] = 5 min prior to CFC, (R,S)-ketamine 30 mg/kg, FENM 20 mg/kg, vs saline
[7] = Saline vs. (R,S)-ketamine (30 mg/kg), FIG. 8D
[8] = Saline vs. (R,S)-ketamine (30 mg/kg), FIG. 8F

With `CNC1(c2ccccc2Cl)CCCCC1=O` (racemic) [(R,S)-ketamine, reference compound] the “p, Fisher's LSD Saline vs. drug, CFC Re-exposure Freezing Min 1 (%)” value [1, 4] was 0.0101, the “p, Fisher's LSD Saline vs. drug, CFC Re-exposure Freezing Min 2 (%)” value [1, 4] was 0.0012 and the “p, Fisher's LSD Saline vs. drug, CFC Re-exposure Freezing Min 3 (%)” value [1, 4] was 0.0320. For the same compound, the “p, Fisher's LSD Saline vs. drug, CFC Re-exposure Freezing Min 4 (%)” value [1, 4] was 0.0592, the “p, Fisher's LSD Saline vs. drug, CFC Re-exposure Freezing Min 5 (%)” value [1, 4] was 0.4016 and the “p, Fisher's LSD Saline vs. drug, CFC Re-exposure Freezing (%)” value ([1]; 30 mg/kg, drug 1 week before stress, after ANOVA, FIG. 1D) was 0.0086. For the same compound, the “p, Fisher's LSD Saline vs. drug, CFC Re-exposure Freezing (%)” value ([1]; 30 mg/kg, drug 1 week before stress, after RMANOVA, FIG. 1C) was 0.0086, the “p, Fisher's PLSD Saline vs. drug, CFC Re-exposure Freezing Min 1 (%)” value [1, 5] was 0.6701 and the “p, Fisher's PLSD Saline vs. drug, CFC Re-exposure Freezing Min 2 (%)” value [1, 5] was 0.0587. The “p, Fisher's PLSD Saline vs. drug, CFC Re-exposure Freezing Min 3 (%)” value [1, 5] was 0.1358, the “p, Fisher's PLSD Saline vs. drug, CFC Re-exposure Freezing Min 4 (%)” value [1, 5] was 0.5515 and the “p, Fisher's PLSD Saline vs. drug, CFC Re-exposure Freezing Min 5 (%)” value [1, 5] was 0.1641. The “p, Fisher's PLSD Saline vs. drug, CFC Re-exposure Freezing (%)” value ([1]; 30 mg/kg, drug 5 minutes after stress, after RMANOVA, FIG. 2C) was 0.4342, the “fear expression during CFC re-exposure” value ([1]; 1 week prior to CFC, (R,S)-ketamine 30 mg/kg, FENM 20 and 30 mg/kg, vs saline) was “decreased fear expression” and the “fear expression during re-exposure 2” value ([1]; 5 min after context re-exposure 1 (24 h before re-exposure 2), (R,S)-ketamine 30 mg/kg, FENM 20 mg/kg, vs saline) was “but not (R,S)-ketamine, significantly decreased”. For the same compound, the “fear expression during CFC re-exposure 1” value [1, 6] was “significantly decreased fear expression”, the “fear expression during CFC re-exposure 2” value [1, 6] was “significantly decreased fear expression” and the “freezing during CFC training” value [1, 6] was “significantly increased freezing”. For the same compound, the “p, Freezing (%), CFC Re-exposure 2, Saline vs. drug” value ([1]; Fisher's LSD after ANOVA, FENM 20 mg/kg, (R,S)-ketamine 30 mg/kg, FIG. 4G) was 0.9122, the “p, Freezing (%), CFC Re-exposure 2, Saline vs. drug” value ([1]; Fisher's LSD after RMANOVA, FENM 20 mg/kg, ketamine 30 mg/kg, FIG. 4F) was 0.9122 and the “p, Freezing (%), CFC Training, Saline vs. drug” value ([1]; Fisher's LSD after RMANOVA, drug 5 min before CFC, (R,S)-ketamine 30 mg/kg, FENM dose lies beyond the rows shown, FIG. 8B) was 0.0024. The “Behavior: Fear” value ([1]; Prophylactic (5 min before stress)) was “↓”, the “Behavior: Fear” value ([1]; Prophylactic (7 days before stress)) was “↓” and the “CFC Training, Average Freezing, p (Fisher's LSD)” value ([1]; Saline vs. (R,S)-ketamine (30 mg/kg), FIG. 8C) was 0.0024. The “CFC Re-exposure 1, Freezing Min 1 (%), p (Fisher's LSD)” value [1, 7] was 0.0066, the “CFC Re-exposure 1, Freezing Min 2 (%), p (Fisher's LSD)” value [1, 7] was under 0.0001 and the “CFC Re-exposure 1, Freezing Min 3 (%), p (Fisher's LSD)” value [1, 7] was under 0.0001. For the same compound, the “CFC Re-exposure 1, Freezing Min 4 (%), p (Fisher's LSD)” value [1, 7] was under 0.0001, the “CFC Re-exposure 1, Freezing Min 5 (%), p (Fisher's LSD)” value [1, 7] was under 0.0001 and the “CFC Re-exposure 2, Freezing Min 1 (%), p (Fisher's LSD)” value [1, 8] was 0.4378. The “CFC Re-exposure 2, Freezing Min 2 (%), p (Fisher's LSD)” value [1, 8] was 0.0304, the “CFC Re-exposure 2, Freezing Min 4 (%), p (Fisher's LSD)” value [1, 8] was under 0.0001 and the “CFC Re-exposure 2, Freezing Min 5 (%), p (Fisher's LSD)” value [1, 8] was under 0.0001. The “CFC Re-exposure 1, Freezing (%), p (Fisher's LSD)” value ([1]; Saline vs. (R,S)-ketamine (30 mg/kg), after ANOVA, FIG. 8E) was under 0.0001, the “CFC Re-exposure 2, Freezing (%), p (Fisher's LSD)” value ([1]; Saline vs. (R,S)-ketamine (30 mg/kg), after ANOVA, FIG. 8G) was under 0.0001 and the “CFC Re-exposure 1, Freezing (%), p (Fisher's LSD)” value ([1]; Saline vs. (R,S)-ketamine (30 mg/kg), after RMANOVA, FIG. 8D) was under 0.0001. For the same compound, the “CFC Re-exposure 2, Freezing (%), p (Fisher's LSD)” value ([1]; Saline vs. (R,S)-ketamine (30 mg/kg), after RMANOVA, FIG. 8F) was under 0.0001, the “CFC Re-exposure 2, Freezing Min 3 (%), p (Fisher's LSD)” value ([1]; Saline vs. ketamine (30 mg/kg), FIG. 8F) was 0.0033 and the “behavior during CFC training” value ([1]; one week prior to 3-shock CFC (c-fos / Western blot cohort), (R,S)-ketamine 30 mg/kg, FENM 20 mg/kg, vs saline) was “did not alter behavior”. For the same compound, the freezing upon re-exposure ([1]; one week prior to 3-shock CFC, re-exposed five days later, (R,S)-ketamine 30 mg/kg, FENM 20 mg/kg, vs saline) was “significantly reduced freezing”, the “NR2A expression in the hippocampus” value [2] was “comparable” and the “[18F]-FENM colocalization with NMDARs when (R,S)-ketamine was administered” value [3] was “colocalization with NMDARs was lost”.
